Tested on: human colon cancer cells (HCT-15)
Experiment: Anticancer effect in nude mice transplanted with human colon cancer cells (tumor volume)
Type: in vivo, BALB/C nude mice
Conditions: G2, 2 mg/kg abdominal, once in 2 days
Method: The anticancer effect of the inventive composition was tested at the Chemon Preclinical Research Center (approved by the KGLP) using a nude mouse transplanted with human colon cancer cells.
7-weeks-old specific pathogen free (SPF) athymic BALB/C nude mice (SLC Japan, Japan) were weighed and grouped to 6 groups, 10 per each group, as follows: negative control group (1), positive control group (1) and test groups (4). The mice were identified by the identification label of the cage and using ear punching.
The test groups were designed as in Table 1.
Colon cancer cells (HCT15) were thawed in a constant-temperature water bath of […] as soon as possible. After mixing well with 10 mL of RPMI1640 culture medium (Sigma Aldrich, USA), centrifuge was performed at 1000 rpm for 10 minutes. The resulting cell pellet was mixed well with 5 mL of RPMI1640 culture medium containing 10% fetal bovine serum (FBS), and the cells were cultured in a cell culture flask under the condition of 37° C. and 5% CO2. The cultured cancer cells were suspended in physiological saline to a concentration of 1×10^7 cells/mL and transplanted subcutaneously to the mice, 0.3 mL (3×10^6 cells) each.
The composition prepared in Example 1 was suspended at various concentrations in sterilized, distilled water for injection (Choongwae Pharma Corporation, Korea) as excipient, ground using a grinding machine (homogenizer), and orally administered to the mice at a dose of 75 mg/kg body weight (G3), 150 mg/kg body weight (G4) or 300 mg/kg body weight (G5), respectively, for 3 weeks, twice a day. Of the test groups, the pre-administration group (G6) had been orally administered with the composition at a dose of 300 mg/kg body weight for 3 weeks, twice a day, before the transplantation of the cancer cells. Following the transplantation of the cancer cells, they were administered in the same way for 3 weeks.
In the negative control group (G1), the excipient was orally administered for 3 weeks, twice a day, instead of the inventive anticancer composition. […] The doxorubicin solution was prepared by dissolving in the excipient by a method known in the art.
During the test, the mice were kept under the condition of 23±3° C. and relative humidity of 55±15%, and access to water and feed was allowed freely.
Tumor volume was measured on days 12, 15, 19 and 22 after the inoculation of the cancer cells. Length, width and height of the tumor were measured using a vernier caliper, and the tumor volume was calculated by the following equation: Tumor volume=(Length×Width×Height)÷2 The tumor volume measurement result is given in Table 2 (unit: mm^3).

Compound COc1cccc2c1C(=O)c1c(O)c3c(c(O)c1C2=O)C[C@@](O)(C(=O)CO)C[C@@H]3O[C@H]1C[C@H](N)[C@H](O)[C@H](C)O1 [doxorubicin] has a Tumor volume (Day 12) of 29.3 ± 16.0 mm^3, a Tumor volume (Day 15) of 93.7 ± 65.9 mm^3 and a Tumor volume (Day 19) of 149.0 ± 77.6 mm^3. The Tumor volume (Day 22) was 258.6 ± 160.1 mm^3 and the “tumor inhibition effect ([1-(tumor volume of administered group/tumor volume of negative control group)]x100)” value (day 22) was 59.5%.

Reference: patent US11684639B2, “Pharmaceutical composition for preventing and treating cell proliferative disease comprising mixture of feather of birds and scale of fish as an active ingredient” (priority 2007, dated 2023)
